Test: xn = mol fraction of the nth substance listed
Conditions: 101.33 kPa, Liquid

CCc1ccccc1 [ethylbenzene] + CN1CCCC1=O
Conditions	mass density, 303.15 K [kg/m3]	mass density, 313.15 K [kg/m3]	mass density, 323.15 K [kg/m3]	viscosity, 303.15 K [mPa·s]	viscosity, 313.15 K [mPa·s]	viscosity, 323.15 K [mPa·s]
x1 = 0.094	1006.25	997.35	988.46	1.415	1.216	1.057
x1 = 0.1901	989.43	980.53	971.63	1.301	1.124	0.982
x1 = 0.2859	972.61	963.71	954.81	1.188	1.033	0.904
x1 = 0.3839	955.98	947.11	938.2	1.081	0.94	0.829
x1 = 0.4839	939.38	930.52	921.64	0.975	0.846	0.75
x1 = 0.5835	923.22	914.35	905.4	0.884	0.772	0.688
x1 = 0.6854	906.91	898.04	889.1	0.796	0.705	0.629
x1 = 0.7888	890.73	881.86	873	0.722	0.643	0.576
x1 = 0.8937	874.71	865.85	856.9	0.66	0.588	0.525
x1 = 1	859.95	851.14	842.3	0.598	0.537	0.483

Reference: the NIST ThermoML archive (doi:10.1021/je049572f)
